Data set [1] deals with normotensive volunteers / hypertensive patients. Also noted: method as in PMID 11116103. The note with it: cited from earlier work.
Data set [2] concerns healthy volunteers. Nature of the data set: Capsaicin cough challenge (cough sensitivity C2/C5). It counts as in vivo, human. The procedure:
(§1) This was a repeated-dose, balanced, two-sequence, two-period, two-treatment, non-placebo controlled, randomized, crossover design study. Since this study examined two ACE-i agents with similar characteristics and was performed using an open design, blinding was not necessary. […] The administered doses were those used for treatment of hypertension and which would yield a similar percentage of responders.
(§2) Capsaicin and citric acid cough challenges were performed prior to and following each 7-day treatment period (Table 2). Cough sensitivity was assessed as the lowest capsaicin or citric acid concentrations causing at least 2 (C2) or 5 coughs (C5), provided that cough was still present following inhalation of the next tussigenic concentration. C2 and C5 values were converted to logC2 and logC5, respectively, for analysis. Concentrations of both capsaicin and citric acid were prepared according to standard procedures, nebulized by a jet nebulizer (DeVilbiss 646, DeVilbiss Health Care Inc., Somerset, PA) driven by compressed air (8 L/min), and inhaled for 1 min during normal tidal breathing. Volunteers undergoing cough challenges were specifically instructed not to attempt to suppress coughs and not to talk immediately after inhalation of the tussigenic agent. In addition, subjects were given the following instruction: “allow yourself to cough if you need to, and as much as you need to”. Subjects were also requested to note on a diary the occurrence of spontaneous cough during the two 7-day treatment periods, using a verbal scale.

In data set [3] the test system is healthy volunteers. Nature of the data set: Citric acid cough challenge (cough sensitivity C2/C5). It is filed as in vivo, human. The procedure:
as §1, §2

Data set [4] deals with healthy volunteers. As to the kind of experiment: Spontaneous cough recordings (diary). It counts as in vivo, human. As to conditions: for total distinct coughing episodes: during 7-day treatment, 40 volunteers; for volunteers who recorded at least 1 spontaneous coughing episode: out of 40, during 7-day treatment. On the procedure:
as §2
A p value <0.05 was considered statistically significant.

For data set [5], the system named is healthy volunteers. Nature of the data set: Airway inflammation by fractional exhaled nitric oxide (FeNO). It is filed as in vivo, human. An excerpt:
FeNO measurements were always performed before cough challenges using a standardized single-breath method with an electrochemical analyzer (HypAir FeNO system, Medisoft, Sorinnes, BE). Subjects were seated (with no nose clip), and exhaled to residual volume, inserted the mouthpiece, inhaled to total lung capacity, then exhaled for 10 seconds at a constant flow rate of 0.05 L/s ± 10%. The end-point of measurement was considered when a plateau of at least 4 seconds was observed. Exhalations were repeated after a 30-second period of relaxation until 3 independent FeNO values with ≤10% variation were obtained.

For the next data set, the system named is bradykinin (BK). Nature of the data set: Bradykinin plasma levels. It counts as in vivo, human. The note with it: day 7 of treatment period, zofenopril 30 mg vs ramipril 10 mg. The procedure: (§3) Blood samples for the measurement of PK parameters and for BK determination were obtained at pre-dose and after drug administration for each of the two study periods (Table 2). […] Repeated pre-dose PK variables determination was performed in order to establish baseline variability.

The test system of data set [6] is healthy volunteers. Nature of the data set: Adverse event and vital signs monitoring. It is filed as in vivo, human. On the procedure: as §1
For data set [7] the following is noted: single dose, cited from earlier work.
The next data set deals with guinea pigs. The note with it: cited from earlier work.
The next data set has as its system rabbits. The note with it: cited from earlier work.
For data set [8] the following is noted: cited from earlier work.
The next data set deals with ACE. The note with it: compared with complexes of other ACE inhibitors; cited from earlier work.
Data set [9] is described as follows: Plasma pharmacokinetics at steady state (day 7). The procedure:
as §3
Spontaneous cough occurring during the two treatment periods was only qualitatively assessed, as the prevalence was expected to be low or very low. AUCss,τ PK parameters were calculated from the individual concentration-time data by using the program WinNonlin software (Pharsight Corporation, Mountain View, CA, USA) and summarized by treatment by means of descriptive statistics, in order to determine mean and standard deviation values. Paired t-test was used to compare mean FeNO values recorded after administration of the test and the reference drug. Statistical analyses were performed by using GraphPad Prism, version 3.02 (GraphPad Software, Inc. La Jolla, CA); sample size and power calculations were performed by using a dedicated software (nQuery Advisor, release 2.0, Los Angeles, CA). A p value <0.05 was considered statistically significant.

The test system of the next data set is plasma ACE activity. The note with it: at 24 h after single oral doses of 30 mg; cited from earlier work.
A further data set has as its system prostaglandins. Also noted: method as in PMID 1850188. The note with it: in-vivo study, compared with other ACE-i; cited from earlier work.

As for `CCOC(=O)[C@H](CCc1ccccc1)N[C@@H](C)C(=O)N1CCC[C@H]1C(=O)O` [enalapril], in data set [1], the “effect on FeNO in hypertensive patients” value is reported as “did not show FeNO increase”. Further, the “effect on FeNO in normotensive volunteers” value in data set [1] (within a few hours) is “capable of increasing FeNO”.

For the compound `CCOC(=O)[C@H](CCc1ccccc1)N[C@@H](C)C(=O)N1[C@H](C(=O)O)C[C@@H]2CCC[C@@H]21` [ramipril], the “capsaicin LogC5 (concentration causing at least 5 coughs), mean ± SD” value in the data set on healthy volunteers [2] (human, in vivo, 7 days) came out at 0.45 ± 0.38 μM. In addition, in the data set with healthy volunteers [3] (human, in vivo, 7 days), the “citric acid LogC2, mean ± SD” value is listed as 1.48 ± 1.09 mM and the “citric acid LogC5, mean ± SD” value stood at 2.23 ± 1.04 mM. Besides, in the data set with healthy volunteers [4], the “total distinct coughing episodes” value is 24 and the “volunteers who recorded at least 1 spontaneous coughing episode” value stood at 9. The “FeNO, mean ± SD” value with healthy volunteers [5] (in vivo) amounted to 33 ± 16 PPB. The “BK plasma levels after administration” value with bradykinin (BK) was “No difference”. Also, the “subjects reporting adverse events of mild intensity” value in the data set with healthy volunteers [6] (human, in vivo, 7 days) is recorded as 5. Further, the “time to peak antihypertensive effect” value in [7] (after oral administration) is 3 to 6 h. For the same compound, in data set [7] (oral), the “duration of antihypertensive effect” value was 24 h. Further, in the data set with guinea pigs, the “augmentation of citric-acid induced cough” value is 40-60%. Further, in the data set on rabbits, the “cough response induced by mechanical and chemical airway stimulation” value is listed as “increased”.

Consider `C[C@H](N[C@@H](CCc1ccccc1)C(=O)O)C(=O)N1[C@H](C(=O)O)C[C@@H]2CCC[C@@H]21` [ramiprilat], for which, in data set [8] (after intake of ramipril), the “time to peak plasma concentrations” value was 2 to 4 h. Further, the “stability/dissociation of inhibitor-ACE complex” value in the data set with ACE was “dissociates more slowly”.

As to `C[C@H](CSC(=O)c1ccccc1)C(=O)N1C[C@@H](Sc2ccccc2)C[C@H]1C(=O)O` [zofenopril], the “capsaicin LogC2 (concentration causing at least 2 coughs), mean ± SD” value in the data set with healthy volunteers [2] (after 7-day treatment (zofenopril 30 mg/day, ramipril 10 mg/day), 40 volunteers, controls 0.81 ± 0.42 (zofenopril), 0.78 ± 0.41 (ramipril)) is 0.75 ± 0.40 μM. The “capsaicin LogC5 (concentration causing at least 5 coughs), mean ± SD” value in the data set with healthy volunteers [2] (after 7-day treatment, 40 volunteers, controls 1.4 ± 0.72 (zofenopril), 1.3 ± 0.63 (ramipril)) turned out to be 1.3 ± 0.68 μM. For the same compound, in the data set with healthy volunteers [3] (after 7-day treatment, 40 volunteers, controls 1.85 ± 1.24 (zofenopril), 1.80 ± 1.28 (ramipril)), the “citric acid LogC2, mean ± SD” value came out at 1.81 ± 1.27 mM. Besides, the “citric acid LogC5, mean ± SD” value with healthy volunteers [3] (after 7-day treatment, 40 volunteers, controls 2.69 ± 1.88 (zofenopril), 2.67 ± 2.01 (ramipril)) turned out to be 2.51 ± 1.57 mM. Further, in the data set on healthy volunteers [4], the “total distinct coughing episodes” value was 36 and the “volunteers who recorded at least 1 spontaneous coughing episode” value is 7. In addition, in data set [9] (24 h interval after administration on day 7), the “Cmin (lowest plasma concentration in the τ period)” value was 0. Besides, the “AUCss,τ, mean ± SD” value in data set [9] (24 h interval after drug administration on day 7, zofenopril 30 mg/day or ramipril 10 mg/day oral) is 84.25 ± 34.47 ng/ml x h. In addition, the “FeNO, mean ± SD” value in the data set with healthy volunteers [5] (after 7-day treatment, controls 22 ± 12 (zofenopril), 24 ± 9.6 (ramipril)) is listed as 26 ± 12 PPB. For the same compound, in the data set on bradykinin (BK), the “BK plasma levels after administration” value is recorded as “No difference”. In addition, in the data set with healthy volunteers [6] (of 40 subjects, headache, vomit, backache, vertigo), the “subjects reporting adverse events of mild intensity” value was found to be 8. The “suppression of plasma ACE activity” value in the data set on plasma ACE activity is 74.4%. The oral absorption result in [8] (after oral administration) was “completely absorbed”. Besides, the “capability to stimulate the production of prostaglandins” value in the data set with prostaglandins is reported as “less than that of other ACE-i”. Moreover, the “effect on citric-acid induced cough” value with guinea pigs is “did not increase”. In the data set with rabbits, the “cough response induced by mechanical and chemical airway stimulation” value is “but not zofenopril, increased”.

As to `C[C@H](CS)C(=O)N1C[C@@H](Sc2ccccc2)C[C@H]1C(=O)O` [zofenoprilat], the “time to peak blood levels” value in [8] (after oral administration of zofenopril) is reported as 1.5 h.

The values are drawn from PMC4308941 (Cough (London, England), 2014).
